How the values were obtained:
[1] = system: Staphylococcus aureus ATCC 6538 and Escherichia coli ATCC 15225; test: Bacteriostatic MIC of release agents (modified standard MIC protocol, tube growth then streak onto TSA plate); type: cell-based; details: lower bacteriostatic limit (bacteriostatic MIC): no growth in tube, growth on TSA plate
From the text: Release agents for use in the described soaps and hard surface cleaners are those materials that can coat all or part of a microbe or spore wall, but not penetrate the cellular or spore wall, rendering the microbe unable to infect skin or reproduce at the time of application. Not only does the release agent coat the microbe, it also coats skin. Because the microbe coating and skin coating have similar charges, the microbe is repelled from the skin surface into the soap layer. After rinsing the soap, the material is disrupted and releases, allowing regrowth of the microbe. […] However, when the solution is swabbed onto a growth media plate, polymer disruption and release occur, allowing the microbe to resume growth. […] A series of compounds were tested to determine whether microbes exposed to these compositions and rinsed off were still viable to regrow. The standard MIC protocol (Internal NTC Microbiology Lab Method: MB-025) was followed for this work with some modifications. The organisms used were Staphylococcus aureus ATCC® 6538™ and Escherichia coli ATCC® 15225™ (94 TFM). All organisms were purchased from Microbiologics® and grown in the lab on Trypticase Soy Agar (TSA) at 35° C. The organisms were washed off of the agar into 0.1% peptone water and visually matched to a McFarland 0.5 Standard (equal to […]). Ten-fold serial dilutions were prepared for all chemicals tested in Mueller-Hinton II Broth (MH Broth). An initial 1:10 dilution in MH Broth was made and all subsequent dilutions were prepared by removing 1 mL from the previous dilution and transferring to a sterile MH Broth tube. For the initial screening, 1:10 serial dilutions were prepared through 1:1,000,000. One mL of the bacterial solution was added to each dilution tube and vortexed to mix. […] For subsequent round(s) of testing, the parts per million (ppm) of chemical was calculated and dilution tubes were prepared to bracket the ppm of growth/no-growth seen during the first round of testing. Each tube was prepared by adding in the calculated amount of MH Broth and test substance. The inoculation and incubation procedure was followed as stated above. […] For the second round of samples, each tube with no growth was streaked onto a Trypticase Soy Agar (TSA) plate to identify if the organism was still present in the tube but unable to grow in the presence of the chemical. All TSA plates were incubated for 18±4 hours at 37° C. and then observed for growth/no-growth.

[2] = system: Staphylococcus aureus ATCC 6538 and Escherichia coli ATCC 15225; test: as above; type: cell-based; details: upper bacteriostatic concentration limit of release agent; no initial growth in solution but growth after swabbing onto growth media plate

Row | Compound | Lower Limit from 24-hour growth (%) [1] [%] | Upper Limit from 1 min Exposure [2]
1 | CCCCCCCCOC(=O)CC(C(=O)OCCCCCCCC)S(=O)(=O)[O-].[Na+] (stereo not shown) [Dioctyl sulfosuccinate sodium salt] | 5.0 | 5.0
2 | CCCCCCCCCCCC(=O)NCCC[N+](C)(C)CC(=O)[O-] [Lauramidopropyle betaine] | 0.1 | 4.0
3 | Cocamidopropyl betaine | 1.0 | 27.0
4 | Cocamidopropyl hydroxy sultaine | 0.5 | 45.0
5 | Disodium Cocamphodiacetate | 2.0 | 36.0
